Measurements taken from patent US12303545B2 (priority 2023, dated 2025).
Converted amounts (≈) assume the structure as drawn. Where two headings read alike, the source gives them in different places. Numbered stars: 1 amine (or outer) side, 2 acyl side, 3 side chain; on linkers, the order of the positions; unused ones are H or OH. Bridge positions count the residues as written; N and C are the ends. Ends that are not written are not given here. Peptide text beside a SMILES is read from it. X1 = O=C(NC[*:1])NC[*:2]

Key:
BCG bacteria [1] = experiment: microbe, parasite or virus in culture; conditions: Mycobacterium tuberculosis variant bovis BCG
BCG bacteria [2] = system: BCG bacteria
trypsin [3] = conditions: trypsin 5 μg/mL
Procedure: (§1) A 4 mg/mL SAH1 solution and a 10 μg/mL trypsin solution each were prepared with PBS (pH 7.4) as a solvent. 250 μL of the trypsin solution was added to 250 μL of the SAH1 solution, and a reaction was conducted in an ice bath. A sample was collected at different time points after the reaction to determine the decomposition of SAH1 by RP-HPLC. RP-HPLC conditions were as follows: A C18 reversed-phase Bio-Rad analytical column was adopted: 250× 4 mm, a pore size: 30 nm, and a particle size: 7 μm. At 0 min to 40 min, linear gradient elution was conducted with 10% to 90% acetonitrile aqueous solutions, with 0.1% TFA (w/v) in both acetonitrile and water. A flow rate was 1.2 mL/min.
(§2) In addition, with the same method as above, the SAH1 aqueous solution was replaced with a 4 mg/mL BMAP-18 aqueous solution to detect the hydrolysis of BMAP-18 by trypsin.

in vitro = conditions: mouse
Procedure: A positive control well was set. The positive control well was the same as test wells except that the polypeptide SAH1 aqueous solution was replaced with a DMEM complete medium. After the incubation, 10 μL of a CCK-8 reaction solution (Beijing Solarbio) was added to each well, and the plate was further incubated at 37° C. for 2 h. Finally, the absorbance at 450 nm was detected with a microplate reader (Synersymx, Biotek). An OD value of the positive control well was BO, an OD value of a test well in which an antimicrobial peptide was added was B, and B/BO was called an inhibition rate. […] With a concentration of an antimicrobial peptide as an x-coordinate and an inhibition rate as a y-coordinate, a line chart was plotted, and IC50 was obtained through fitting.

trypsin [4] = experiment: in vitro; conditions: isolated enzyme trypsin, pH 7.4
Procedure: as §1, §2

BCG = type: cell-based, attenuated Mycobacterium bovis; conditions: treated as in Example 5

Molecule | MIC (BCG bacteria [1]) | Peak area (RP-HPLC) (trypsin [3]; reaction time 0 min) | Polypeptide residue (trypsin [3]; reaction time 0 min) | Peak area (RP-HPLC) (trypsin [3]; reaction time 15 min) | Polypeptide residue (trypsin [3]; reaction time 15 min) | Peak area (RP-HPLC) (trypsin [3]; reaction time 30 min) | Polypeptide residue (trypsin [3]; reaction time 30 min) | IC50 at 24 h (in vitro) | remaining at 0.25 h, 2 mg/mL (trypsin [4]) | also measured
NNC(=O)c1ccncc1 [Isoniazid] | 800 µM (≈ 110 µg/mL) | – | – | – | – | – | – | – | – | –
GRFKRFRKKFKKLFKKLS-OH [BMAP-18, G-R-F-K-R-F-R-K-K-F-K-K-L-F-K-K-L-S-OH] | – | 254.43 | 100% | 45.20 | 17.76% | 0.02 | almost completely hydrolyzed | 150 µM | 17.8% | MIC (BCG bacteria [2]): 300 µM; antibacterial ability relative to SAH1 (BCG bacteria [2]): one twenty-fourth; remaining at 0.5 h, 2 mg/mL (trypsin [4]): 0.01%
CC[C@@H](CO)NCCN[C@@H](CC)CO [Ethambutol] | 800 µM (≈ 163 µg/mL) | – | – | – | – | – | – | – | – | –
CC(C)CC(NC(=O)C(CCCCN)NC(=O)C(CCCCN)NC(=O)C(Cc1ccccc1)NC(=O)C(CC(C)C)NC(=O)C(CCCCN)NC(=O)C(CCCCN)NC(=O)C(Cc1ccccc1)NC(=O)C(CCCCN)NC(=O)C1CSCNC(=O)NCSCC(NC(=O)C(Cc2ccccc2)NC(=O)C(CCCNC(=N)N)NC(=O)CN)C(=O)NC(CCCNC(=N)N)C(=O)NC(Cc2ccccc2)C(=O)NC(CCCNC(=N)N)C(=O)N1)C(=O)NC(CO)C(=O)O (stereo not drawn) [SAH1] (H-GRFCRFRCKFKKLFKKLS-OH; linker 4-8 via X1; configuration not given here) | – | 274.44 | 100% | 185.49 | 67.59% | 125.94 | 45.89% | 300 µM | 67.6% | MIC (BCG bacteria [2]; BCG bacteria, 37° C. for 7 d, then resazurin 2 d, 7H9 medium): 12.5 µM (≈ 29.7 µg/mL); Peak area (RP-HPLC) (trypsin [3]; reaction time 60 min): 82.92; Polypeptide residue (trypsin [3]; reaction time 60 min): 30.21%; remaining at 1 h, 2 mg/mL (trypsin [4]): 30.2%; impact on cell membrane and intracellular structure of BCG (TEM) (BCG): largely missed, resulting in cavities and bacterial death
CO[C@H]1/C=C/O[C@@]2(C)Oc3c(C)c(O)c4c(O)c(c(/C=N/N5CCN(C)CC5)c(O)c4c3C2=O)NC(=O)/C(C)=C\C=C\[C@H](C)[C@H](O)[C@@H](C)[C@@H](O)[C@@H](C)[C@H](OC(C)=O)[C@@H]1C [Rifampicin] | 400 µM (≈ 329 µg/mL) | – | – | – | – | – | – | – | – | –
